Experimental data: patent US11406664B2, “Ferric maltol compositions for use in the treatment or prevention of cancer and tumours” (Shield TX (UK) Limited, priority 2016, dated 2022)

How the values were obtained:
[1] = system: Hutu 80 human epithelial duodenum adenocarcinoma cell line; assay: Proliferation assay by real time live cell imaging (Incucyte), Hutu 80; type: cell-based; conditions: for effect on cell proliferation: iron compounds, 5 or 10% FBS, at concentrations predicted in gut lumen with iron supplementation; for effect on cell proliferation / effect on cancer cell proliferation, ligand not bound to iron: 72 h; for effect on cancer cell proliferation, ligand not bound to iron: ligand-only control
Procedure: (§1) FIG. 2: Inhibition of cell proliferation in the Hutu 80 human epithelial duodenum adenocarcinoma cell line with different iron compounds as assessed by real time live cell imaging (Incucyte™) Cells were treated for 72 h with the indicated iron compounds in complete growth media containing 5% FBS (A) or 10% FBS (B), the corresponding ‘ligand-only’ controls are shown in panels C and D. Normalised cell proliferation corresponds to the area under the proliferation curve for cells grown in media supplemented with each compound divided by the area under the curve for cells grown in media alone (i.e. without any of the supplemented compounds). Data are presented as mean with SEM (n=2 independent experiments with 3 replicates for each experiment).
(§2) A stock solution of ferric citrate (FeCitrate) 8 mM [Fe] was produced by adding citric acid to ferric chloride on a 1:1 molar ratio. Ferric trimaltol (FTMB) was produced from iron hydroxides and maltol, and the stock solution of circa 8 mM [Fe] was produced by dissolving it in ultrapure water. All stock solutions were filter sterilised (0.2 μm).
(§3) Three different epithelial cancer cell lines were used: colorectal adenocarcinoma [Caco2 (ATCC) and HT29(ECAAC)] and duodenum adenocarcinoma [Hutu 80 (ATCC)]. The cells were grown in an incubator at 37° C. and an atmosphere of 5% CO2 and 95% air at a relative humidity of approximately 95%. The cancer cells were grown in Gibco® MEM supplemented with 5 or 10% foetal bovine serum (FBS) as stated, 1% penicillin/streptomycin (10.000 Units/ml Penicillin, 10.000 μg/ml Streptomycin) and 1% fungizone (Amphotericin B, 250 μg/ml).
(§4) Working solutions of 2 mM [Fe] for each iron compound were prepared fresh on the day of the experiment by diluting the stock solutions of the different iron materials in complete cell growth medium and these 2 mM solutions were used in the serial dilutions to achieve the 8 different concentrations for the proliferation assay (0.89, 0.49, 0.27, 0.15, 0.08, 0.05, 0.026, 0.015) in 96-well ImageLock cell culture plates. A control condition containing only complete growth medium without any iron compound added was also tested. The cells were seeded at a density of 10,000-20,000 cells/well. The plates were incubated in a Live Content Imaging Incubator (Incucyte ZOOM, Essen BioScience Ltd., UK) and images and confluence data were acquired every 3 hours for 72 hours post-seeding. Within each experiment each iron concentration was tested in triplicate wells.
(§5) The plot of confluence (%) vs time (h) was obtained for each iron compound and concentration. The area under the curve (AUC) was calculated and plotted against the concentration for each test compound or the control. The AUC for each iron compound was normalised against that of the control (i.e. complete growth medium alone).

[2] = system: HT29 human epithelial colorectal adenocarcinoma cell line; assay: Proliferation assay by real time live cell imaging (Incucyte), HT29; type: cell-based; conditions: for effect on cell proliferation: iron compounds, 5 or 10% FBS, at concentrations predicted in gut lumen with iron supplementation; for effect on cell proliferation / effect on cancer cell proliferation, ligand not bound to iron: 72 h; for effect on cancer cell proliferation, ligand not bound to iron: ligand-only control
Procedure: FIG. 3: Inhibition of cell proliferation in the HT29 human epithelial colorectal adenocarcinoma cell line with the different iron compounds as assessed by real time live cell imaging (Incucyte™). Conditions were as above in the legend to FIG. 2.
as §2, §3, §4, §5

[3] = system: intestinal cancer; conditions: animal models; cited from earlier work
[4] = system: Caco2 human epithelial colorectal adenocarcinoma cell line; assay: Proliferation assay by real time live cell imaging (Incucyte), Caco2; type: cell-based; conditions: for effect on cell proliferation: iron compounds, 5 or 10% FBS, at concentrations predicted in gut lumen with iron supplementation
Procedure: as §1, with “1. […]” for “2: Inhibition of cell proliferation in the Hutu 80 human epithelial duodenum adenocarcinoma cell line with different iron compounds as assessed by real time live cell imaging (Incucyte™)”, “(n=3” for “(n=2”
as §2, §3, §4, §5

[5] = patients with inflammatory bowel disease; cited from earlier work
[6] = review of real time-recorded cell images, concentration as iron

Compound: O=C([O-])CN(CCN(CC(=O)[O-])CC(=O)[O-])CC(=O)[O-].[Fe+3].[Na+] [ferric EDTA, ferric EDTA sodium salt]
- effect on cell proliferation [1]: promoted proliferation
- effect on cell proliferation [2]: promoted proliferation
- effect on intestinal cancer [3]: enhance intestinal cancer

Compound: O=C(O)CN(CCN(CC(=O)O)CC(=O)O)CC(=O)O [EDTA]
- effect on cancer cell proliferation, ligand not bound to iron [1]: moderate inhibition
- effect on cancer cell proliferation, ligand not bound to iron [2]: moderate inhibition

Compound: Cc1occc(=O)c1O [maltol, 3-Hydroxy-2-methyl-4H-pyran-4-one]
- effect on cancer cell proliferation, ligand not bound to iron [1]: moderate inhibition
- effect on cancer cell proliferation, ligand not bound to iron ([4]; ligand-only control, 72 h): moderate inhibition
- effect on cancer cell proliferation, ligand not bound to iron [2]: moderate inhibition

Compound: ferric citrate
- effect on cell proliferation [1]: promoted proliferation
- effect on cell proliferation ([4]; 72 h): promoted proliferation
- effect on cell proliferation [2]: promoted proliferation
- effect on intestinal cancer [3]: enhance intestinal cancer

Compound: O.O.O.O.O.O.O.O=S(=O)([O-])[O-].[Fe+2] [ferrous sulphate, Ferrous sulphate heptahydrate]
- effect on cell proliferation [1]: promoted proliferation
- effect on cell proliferation [2]: promoted proliferation

Compound: Cc1occc(=O)c1[O-].Cc1occc(=O)c1[O-].Cc1occc(=O)c1[O-].[Fe+3] [ferric trimaltol]
- effect on cell proliferation [1]: inhibited cancer cell proliferation
- iron concentration at which cells were non-proliferative [1, 6]: 400 µM
- iron concentration at which cells were poorly proliferating [1, 6]: 150 µM
- effect on cell proliferation ([4]; 72 h): inhibited cancer cell proliferation
- iron concentration at which cells were non-proliferative [4, 6]: 80 µM
- iron concentration at which cells were poorly proliferating [4, 6]: 50 µM
- effect on cell proliferation [2]: inhibited cancer cell proliferation
- iron concentration at which cells were non-proliferative [2, 6]: 80 µM
- iron concentration at which cells were poorly proliferating [2, 6]: 50 µM
- correction of iron deficiency anaemia [5]: effectively delivers iron to correct iron deficiency anaemia
